Literature values in patent publication US10874875B2, “Irradiation device” (Photocure ASA, priority 2009, dated 2020).

Test system: CIN2 or CIN3 or a persistent CIN1
Conditions: 24 patients; local application in a thermogel formulation; illumination 17 minutes after 3-5 hours, laser 100 J/cm^2; second PDT offered for incomplete response; scored at 6 months after the first treatment

## CCCCCCOC(=O)CCC(=O)CN [5-ALA hexylester, 5-ALA hexyl ester]
  complete response rate: 63%
